Measured values as given in ChEMBL document CHEMBL1201862, “PubChem BioAssay data set” (2004).
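Cultured in 96-well plates, cells were exposed to test compound for 48 hours across five concentrations. Abbreviation: GI50, concentration required for 50% inhibition of growth.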 The source made the active and inactive calls. Cut-off read from the data, not from the text of the source: active = GI50 up to about 1.1 µM and inactive = higher. Non-standard residues stand in square brackets, D forms with d. Residues, ends and D or L forms follow the SMILES beside them. *: point of attachment. Ac5c = NC1(C(=O)O)CCCC1; Cbz = O=C(OCc1ccccc1)*; Boc = CC(C)(C)OC(=O)*; tBu = CC(C)(C)*

Legend:
Assay in all cases: DTP human tumour cell line panel, 48 h
[1] = tested on: A549
[2] = tested on: CCRF-CEM
[3] = tested on: COLO 205
[4] = tested on: Hs-578T
[5] = tested on: KM12
[6] = tested on: MCF7
[7] = tested on: MDA-N
[8] = tested on: NCI-H226
[9] = tested on: NCI-H23
[10] = tested on: NCI-H460
[11] = tested on: OVCAR-4
[12] = tested on: RPMI-8226
[13] = tested on: SF-295
[14] = tested on: SK-OV-3
[15] = tested on: SNB-75
[16] = tested on: TK-10
[17] = tested on: LXFL 529
[18] = tested on: M19-MEL
[19] = tested on: DLD-1

SMILES | GI50 [1] | GI50 [2] | GI50 [3] | GI50 [4] | GI50 [5] | GI50 [6] | GI50 [7] | GI50 [8] | GI50 [9] | GI50 [10] | GI50 [11] | GI50 [12] | GI50 [13] | GI50 [14] | GI50 [15] | GI50 [16] | GI50 [17] | GI50 [18] | GI50 [19]
COC(=O)C1C(C(=O)OC)N(Cc2ccccc2)C(=O)N1Cc1ccccc1 (stereo not given) | > 100 µM (inactive) | 57.4 µM (inactive) | > 100 µM (inactive) | > 100 µM (inactive) | > 100 µM (inactive) | 7.5 µM (inactive) | > 100 µM (inactive) | > 100 µM (inactive) | 75.5 µM (inactive) | 69.5 µM (inactive) | > 100 µM (inactive) | 35 µM (inactive) | 39.1 µM (inactive) | 53.8 µM (inactive) | > 100 µM (inactive) | > 100 µM (inactive) | – | – | –
COC(O)C(=O)c1c2c(cc3c1CCC3)CCCC2 (stereo not given) | 18.6 µM (inactive) | 2.39 µM (inactive) | 6.62 µM (inactive) | 4.22 µM (inactive) | 8.59 µM (inactive) | 5.27 µM (inactive) | 13 µM (inactive) | 16.5 µM (inactive) | 10.7 µM (inactive) | 7.5 µM (inactive) | 7.31 µM (inactive) | 2.46 µM (inactive) | 10.5 µM (inactive) | 12 µM (inactive) | 8.17 µM (inactive) | 16.3 µM (inactive) | – | – | –
Cc1nc2ccccc2n1Cc1nnc2n1N=C(c1ccccc1)CS2 | 36.2 µM (inactive) | 27.9 µM (inactive) | 30.1 µM (inactive) | 38.5 µM (inactive) | 31.2 µM (inactive) | 27.4 µM (inactive) | 32.3 µM (inactive) | > 100 µM (inactive) | 33.2 µM (inactive) | 33.5 µM (inactive) | 45.1 µM (inactive) | 17.7 µM (inactive) | 43.1 µM (inactive) | > 100 µM (inactive) | 18 µM (inactive) | 40.1 µM (inactive) | – | – | –
NC12Oc3cc(O)cc(O)c3C1(c1ccc(Cl)cc1)c1c(O)cc(O)cc1O2 (stereo not given) | > 100 µM (inactive) | 37.7 µM (inactive) | 97.5 µM (inactive) | 28.8 µM (inactive) | > 100 µM (inactive) | 59.8 µM (inactive) | 39.9 µM (inactive) | > 100 µM (inactive) | 46.9 µM (inactive) | 34.6 µM (inactive) | 27.5 µM (inactive) | 33.4 µM (inactive) | 96.8 µM (inactive) | > 100 µM (inactive) | 89.1 µM (inactive) | 66.8 µM (inactive) | – | – | –
Cc1ccc(CN2CCN(Cc3ccc(C)o3)C(C)C2)o1 (stereo not given) | > 100 µM (inactive) | > 100 µM (inactive) | > 100 µM (inactive) | > 100 µM (inactive) | > 100 µM (inactive) | > 100 µM (inactive) | > 100 µM (inactive) | > 100 µM (inactive) | > 100 µM (inactive) | > 100 µM (inactive) | > 100 µM (inactive) | > 100 µM (inactive) | > 100 µM (inactive) | > 100 µM (inactive) | > 100 µM (inactive) | > 100 µM (inactive) | – | – | –
COc1ccc2[nH]c3c(C)c4cc[n+](COC(=O)c5ccccc5)cc4c(C)c3c2c1 | 0.269 µM (active) | 0.0698 µM (active) | – | – | 0.61 µM (active) | – | – | – | 0.428 µM (active) | 0.0357 µM (active) | 0.168 µM (active) | 0.144 µM (active) | 0.184 µM (active) | 1.22 µM (inactive) | 0.703 µM (active) | 0.55 µM (active) | 0.148 µM (active) | 0.381 µM (active) | –
COCC1OC(OC2C3=C(C(C)C)CCC3(C)/C=C3\C(CCC3(O)COC)C(C)C2O)C(O)C2OC3OC12OC3(C)C1CO1 (stereo not given) | 53.8 µM (inactive) | 24.3 µM (inactive) | 41.5 µM (inactive) | 19.6 µM (inactive) | 52.8 µM (inactive) | 45.5 µM (inactive) | 54.1 µM (inactive) | 16.3 µM (inactive) | 90.2 µM (inactive) | 32.7 µM (inactive) | 25.5 µM (inactive) | 27.2 µM (inactive) | 31.7 µM (inactive) | 51.8 µM (inactive) | 21.7 µM (inactive) | 29.9 µM (inactive) | – | – | –
C=C1CC(C)(COc2ccc3ccc(=O)oc3c2)OC1=O (stereo not given) | 13.5 µM (inactive) | 0.402 µM (active) | 0.982 µM (active) | 4.91 µM (inactive) | 4.07 µM (inactive) | 1.48 µM (inactive) | 0.951 µM (active) | 11.4 µM (inactive) | 2.29 µM (inactive) | 6.62 µM (inactive) | 2.84 µM (inactive) | 0.757 µM (active) | 5.68 µM (inactive) | 8.15 µM (inactive) | 9.57 µM (inactive) | 1.58 µM (inactive) | – | – | –
CC(C)CC(C(N)=O)C(=O)NC(Cc1ccccc1)NC(=O)CNC(=O)C(C)NC(=O)C(N)Cc1ccc(O)cc1 (stereo not given) | > 100 µM (inactive) | > 100 µM (inactive) | > 100 µM (inactive) | > 100 µM (inactive) | > 100 µM (inactive) | > 100 µM (inactive) | > 100 µM (inactive) | > 100 µM (inactive) | > 100 µM (inactive) | > 100 µM (inactive) | > 100 µM (inactive) | > 100 µM (inactive) | > 100 µM (inactive) | > 100 µM (inactive) | > 100 µM (inactive) | > 100 µM (inactive) | – | – | –
O=C1CCc2ccc3c(c21)CC1(Cc2ccccc2C1)C3 | 7.78 µM (inactive) | 10.6 µM (inactive) | 16.2 µM (inactive) | 25.8 µM (inactive) | 7.52 µM (inactive) | 19.2 µM (inactive) | 2.69 µM (inactive) | 19.1 µM (inactive) | 11.6 µM (inactive) | 2.57 µM (inactive) | 10.5 µM (inactive) | 6.55 µM (inactive) | 3.72 µM (inactive) | 41.4 µM (inactive) | 14.4 µM (inactive) | 11.1 µM (inactive) | – | – | –
O=S(=O)(Cc1nc2ccccc2s1)c1nc2ccccc2s1 | 29.3 µM (inactive) | 5.5 µM (inactive) | 17.9 µM (inactive) | 19.9 µM (inactive) | 18.2 µM (inactive) | 18.7 µM (inactive) | 15.5 µM (inactive) | 26.5 µM (inactive) | 15.6 µM (inactive) | 38 µM (inactive) | 16.9 µM (inactive) | 16 µM (inactive) | 26.2 µM (inactive) | 37 µM (inactive) | 18.3 µM (inactive) | 20 µM (inactive) | – | – | –
COc1cc2c(cc1OCCCC(=O)Nc1cc(C(=O)Nc3cc(C(=O)Nc4cc(C(=O)NCCCN(C)C)n(C)n4)n(C)c3)n(C)c1)N=CC1CCCN1C2=O (stereo not given) | 49.3 µM (inactive) | 4.31 µM (inactive) | 21.2 µM (inactive) | 22.1 µM (inactive) | 24 µM (inactive) | 16.8 µM (inactive) | 20 µM (inactive) | 25.1 µM (inactive) | 25.8 µM (inactive) | 25.9 µM (inactive) | 20.1 µM (inactive) | 25.7 µM (inactive) | 31.4 µM (inactive) | 40.6 µM (inactive) | 23.9 µM (inactive) | 21 µM (inactive) | – | – | –
CC(=O)/C=C/C1=C(C)CCCC1(C)CC(C)C (stereo not given) | 24.9 µM (inactive) | 14.9 µM (inactive) | 30.3 µM (inactive) | 32.7 µM (inactive) | 34.8 µM (inactive) | 25.2 µM (inactive) | 28.9 µM (inactive) | 33.5 µM (inactive) | 24.8 µM (inactive) | 29.1 µM (inactive) | 63.8 µM (inactive) | 13.7 µM (inactive) | 34.2 µM (inactive) | 55.5 µM (inactive) | 21.6 µM (inactive) | > 100 µM (inactive) | – | – | –
O=C(O)NC(c1ccccc1)C(NC(=O)c1ccccc1)c1ccccc1 (stereo not given) | > 100 µM (inactive) | – | > 100 µM (inactive) | – | > 100 µM (inactive) | – | – | – | > 100 µM (inactive) | > 100 µM (inactive) | > 100 µM (inactive) | > 100 µM (inactive) | > 100 µM (inactive) | – | > 100 µM (inactive) | > 100 µM (inactive) | – | > 100 µM (inactive) | > 100 µM (inactive)
COc1ccc2ccccc2c1/C=C/C(=O)c1ccccc1 | 2.65 µM (inactive) | 1.65 µM (inactive) | 3.25 µM (inactive) | 2.92 µM (inactive) | 2.51 µM (inactive) | 3.25 µM (inactive) | 2.94 µM (inactive) | 3.1 µM (inactive) | 2.6 µM (inactive) | 1.79 µM (inactive) | 2.74 µM (inactive) | 1.44 µM (inactive) | 3.75 µM (inactive) | 3.62 µM (inactive) | 1.08 µM (active) | 2.59 µM (inactive) | – | – | –
COC(=O)C1(NC(=O)C(Cc2ccccc2)NC(=O)C(NC(=O)C(CCCCNC(=O)OC(C)(C)C)NC(=O)C(Cc2c[nH]c3ccccc23)NC(=O)C(Cc2ccccc2)NC(=O)OCc2ccccc2)C(C)OC(C)(C)C)CCCC1 (stereo not given) (Cbz-FWK(Boc)T(tBu)F[Ac5c]-OMe; configuration not given here) | > 100 µM (inactive) | 98.9 µM (inactive) | > 100 µM (inactive) | > 100 µM (inactive) | > 100 µM (inactive) | > 100 µM (inactive) | > 100 µM (inactive) | > 100 µM (inactive) | > 100 µM (inactive) | > 100 µM (inactive) | > 100 µM (inactive) | > 100 µM (inactive) | > 100 µM (inactive) | 93.3 µM (inactive) | > 100 µM (inactive) | > 100 µM (inactive) | – | – | –
CC1CC(C)(O)CC(C(O)CC2CC(=O)NC(=O)C2)C1=O (stereo not given) [RESACTIN A] | 0.0513 µM (active) | < 0.014 µM (active) | 0.0381 µM (active) | < 0.0126 µM (active) | 0.0327 µM (active) | 0.0379 µM (active) | 0.0372 µM (active) | 0.0689 µM (active) | 0.0413 µM (active) | 0.0385 µM (active) | 0.0447 µM (active) | 0.0456 µM (active) | < 0.0149 µM (active) | 0.0818 µM (active) | 0.0225 µM (active) | 0.187 µM (active) | – | – | –
